PMC6268188, “Comparative Studies of the (Anti) Mutagenicity of Baccharis dracunculifolia and Artepillin C by the Bacterial Reverse Mutation Test” (Molecules, 2012)
Values joined by “and” are separate entries in the source; they are usually repeats but may differ in a detail not shown here. Equal values may be shown once. Read-outs that look alike come from different tables or passages of the source.

Columns and labels:
[1] = test system: DNA damage induced by methyl methanesulfonate and doxorubicin; details: micronucleus and comet assays; cited from earlier work
S. typhimurium TA98 [2] = test system: S. typhimurium TA98
S. typhimurium TA102 = assay: Antimutagenicity assay (Ames test with known mutagens), strain TA102; type: cell-based, Salmonella typhimurium
S. typhimurium TA98 [3] = assay: Antimutagenicity assay (Ames test with known mutagens), strain TA98; type: cell-based, Salmonella typhimurium
[4] = 0.69 µg/plate + AF 10.0 μg/plate, TA 102, + S9
[5] = 1.37 µg/plate + AF 10.0 μg/plate, TA 102, + S9
[6] = 1.37 µg/plate + MMC 0.5 μg/plate, TA 102, − S9
[7] = 2.75 µg/plate + AF 10.0 μg/plate, TA 102, + S9
[8] = 2.75 µg/plate + MMC 0.5 μg/plate, TA 102, − S9
[9] = 5.49 µg/plate + AF 10.0 μg/plate, TA 102, + S9
[10] = 5.49 µg/plate + MMC 0.5 μg/plate, TA 102, − S9
[11] = […] + AF 10.0 μg/plate, TA 102, + S9
[12] = […] + MMC 0.5 μg/plate, TA 102, − S9
[13] = 0.69 µg/plate + AA 1.25 μg/plate, TA 97a, + S9
[14] = 0.69 µg/plate + NOPD 10.0 μg/plate, TA 97a, − S9
[15] = 1.37 µg/plate + AA 1.25 μg/plate, TA 97a, + S9
[16] = 1.37 µg/plate + NOPD 10.0 μg/plate, TA 97a, − S9
[17] = 2.75 µg/plate + AA 1.25 μg/plate, TA 97a, + S9
[18] = 2.75 µg/plate + NOPD 10.0 μg/plate, TA 97a, − S9
[19] = 5.49 µg/plate + AA 1.25 μg/plate, TA 97a, + S9
[20] = 5.49 µg/plate + NOPD 10.0 μg/plate, TA 97a, − S9
[21] = […] + AA 1.25 μg/plate, TA 97a, + S9
[22] = […] + NOPD 10.0 μg/plate, TA 97a, − S9
[23] = 0.69 µg/plate + B[a]P 1.0 μg/plate, TA 98, + S9
[24] = 0.69 µg/plate + NOPD 10.0 μg/plate, TA 98, − S9

Compound: CC(C)=CCc1cc(/C=C/C(=O)O)cc(CC=C(C)C)c1O [ArtC, 3-{4-hydroxy-3,5-di(3-methyl-2-butenyl)phenyl}-2(E)-propenoic acid]
- protection against DNA damage [1]: able to protect against DNA damage
- MI (mutagenicity index) (S. typhimurium TA98 [2]; 0.69 µg/plate, TA 98, + S9): 0.9
- Number of revertants (M ± SD)/ plate (S. typhimurium TA98 [2]; 0.69 µg/plate, TA 98, + S9): 28 ± 3 revertants/plate
- MI (mutagenicity index) (S. typhimurium TA98 [2]; 0.69 µg/plate, TA 98, − S9): 1.0
- Number of revertants (M ± SD)/ plate (S. typhimurium TA98 [2]; 0.69 µg/plate, TA 98, − S9): 21 ± 3 revertants/plate
- MI (mutagenicity index) (S. typhimurium TA98 [2]; 1.37 µg/plate, TA 98, + S9): 1.1
- Number of revertants (M ± SD)/ plate (S. typhimurium TA98 [2]; 1.37 µg/plate, TA 98, + S9): 32 ± 1 revertants/plate
- MI (mutagenicity index) (S. typhimurium TA98 [2]; 1.37 µg/plate, TA 98, − S9): 1.2
- Number of revertants (M ± SD)/ plate (S. typhimurium TA98 [2]; 1.37 µg/plate, TA 98, − S9): 24 ± 4 revertants/plate
- MI (mutagenicity index) (S. typhimurium TA98 [2]; 2.75 µg/plate, TA 98, + S9): 1.0
- Number of revertants (M ± SD)/ plate (S. typhimurium TA98 [2]; 2.75 µg/plate, TA 98, + S9): 29 ± 3 revertants/plate
- MI (mutagenicity index) (S. typhimurium TA98 [2]; 2.75 µg/plate, TA 98, − S9): 1.4
- Number of revertants (M ± SD)/ plate (S. typhimurium TA98 [2]; 2.75 µg/plate, TA 98, − S9): 28 ± 5 revertants/plate
- MI (mutagenicity index) (S. typhimurium TA98 [2]; 5.49 µg/plate, TA 98, + S9): 1.1
- Number of revertants (M ± SD)/ plate (S. typhimurium TA98 [2]; 5.49 µg/plate, TA 98, + S9): 32 ± 2 revertants/plate
- MI (mutagenicity index) (S. typhimurium TA98 [2]; 5.49 µg/plate, TA 98, − S9): 1.5
- Number of revertants (M ± SD)/ plate (S. typhimurium TA98 [2]; 5.49 µg/plate, TA 98, − S9): 29 ± 1 revertants/plate
- Number of revertants (M ± SD)/ plate (S. typhimurium TA102): 879 ± 11 revertants/plate and 529 ± 20 revertants/plate
- % inhibition (S. typhimurium TA102; [4]): 41%
- Number of revertants (M ± SD)/ plate (S. typhimurium TA102; [4]): 645 ± 23 revertants/plate
- antimutagenic effect class (S. typhimurium TA102; [4]): *** (strong antimutagenic effect (> 40% inhibition))
- Number of revertants (M ± SD)/ plate (S. typhimurium TA102; 0.69 µg/plate + MMC 0.5 μg/plate, TA 102, − S9): 1096 ± 19 revertants/plate
- % inhibition (S. typhimurium TA102; [5]): 46%
- Number of revertants (M ± SD)/ plate (S. typhimurium TA102; [5]): 595 ± 25 revertants/plate
- antimutagenic effect class (S. typhimurium TA102; [5]): *** (strong antimutagenic effect (> 40% inhibition))
- % inhibition (S. typhimurium TA102; [6]): 5%
- Number of revertants (M ± SD)/ plate (S. typhimurium TA102; [6]): 1022 ± 18 revertants/plate
- antimutagenic effect class (S. typhimurium TA102; [6]): * (no antimutagenic effect (< 25% inhibition))
- % inhibition (S. typhimurium TA102; [7]): 48%
- Number of revertants (M ± SD)/ plate (S. typhimurium TA102; [7]): 566 ± 17 revertants/plate
- antimutagenic effect class (S. typhimurium TA102; [7]): *** (strong antimutagenic effect (> 40% inhibition))
- % inhibition (S. typhimurium TA102; [8]): 7%
- Number of revertants (M ± SD)/ plate (S. typhimurium TA102; [8]): 994 ± 25 revertants/plate
- antimutagenic effect class (S. typhimurium TA102; [8]): * (no antimutagenic effect (< 25% inhibition))
- % inhibition (S. typhimurium TA102; [9]): 56%
- Number of revertants (M ± SD)/ plate (S. typhimurium TA102; [9]): 488 ± 14 revertants/plate
- antimutagenic effect class (S. typhimurium TA102; [9]): *** (strong antimutagenic effect (> 40% inhibition))
- % inhibition (S. typhimurium TA102; [10]): 12%
- Number of revertants (M ± SD)/ plate (S. typhimurium TA102; [10]): 943 ± 17 revertants/plate
- antimutagenic effect class (S. typhimurium TA102; [10]): * (no antimutagenic effect (< 25% inhibition))
- effect on MMC-induced mutagenicity (S. typhimurium TA102; TA102, MMC): did not affect
- % inhibition (S. typhimurium TA102; [11]): 52%
- antimutagenic effect class (S. typhimurium TA102; [11]): *** (strong antimutagenic effect (> 40% inhibition))
- % inhibition (S. typhimurium TA102; [12]): 18%
- antimutagenic effect class (S. typhimurium TA102; [12]): * (no antimutagenic effect (< 25% inhibition))
- Number of revertants (M ± SD)/ plate (S. typhimurium TA97a): 891 ± 17 revertants/plate and 1602 ± 17 revertants/plate
- % inhibition (S. typhimurium TA97a; [13]): 14%
- Number of revertants (M ± SD)/ plate (S. typhimurium TA97a; [13]): 1603 ± 26 revertants/plate
- antimutagenic effect class (S. typhimurium TA97a; [13]): * (no antimutagenic effect (< 25% inhibition))
- % inhibition (S. typhimurium TA97a; [14]): 21%
- Number of revertants (M ± SD)/ plate (S. typhimurium TA97a; [14]): 876 ± 8 revertants/plate
- antimutagenic effect class (S. typhimurium TA97a; [14]): * (no antimutagenic effect (< 25% inhibition))
- % inhibition (S. typhimurium TA97a; [15]): 13%
- Number of revertants (M ± SD)/ plate (S. typhimurium TA97a; [15]): 1617 ± 16 revertants/plate
- antimutagenic effect class (S. typhimurium TA97a; [15]): * (no antimutagenic effect (< 25% inhibition))
- % inhibition (S. typhimurium TA97a; [16]): 22%
- Number of revertants (M ± SD)/ plate (S. typhimurium TA97a; [16]): 862 ± 14 revertants/plate
- antimutagenic effect class (S. typhimurium TA97a; [16]): * (no antimutagenic effect (< 25% inhibition))
- % inhibition (S. typhimurium TA97a; [17]): 10%
- Number of revertants (M ± SD)/ plate (S. typhimurium TA97a; [17]): 1669 ± 19 revertants/plate
- antimutagenic effect class (S. typhimurium TA97a; [17]): * (no antimutagenic effect (< 25% inhibition))
- % inhibition (S. typhimurium TA97a; [18]): 20%
- Number of revertants (M ± SD)/ plate (S. typhimurium TA97a; [18]): 885 ± 19 revertants/plate
- antimutagenic effect class (S. typhimurium TA97a; [18]): * (no antimutagenic effect (< 25% inhibition))
- % inhibition (S. typhimurium TA97a; [19]): 13%
- Number of revertants (M ± SD)/ plate (S. typhimurium TA97a; [19]): 1620 ± 21 revertants/plate
- antimutagenic effect class (S. typhimurium TA97a; [19]): * (no antimutagenic effect (< 25% inhibition))
- % inhibition (S. typhimurium TA97a; [20]): 16%
- Number of revertants (M ± SD)/ plate (S. typhimurium TA97a; [20]): 933 ± 7 revertants/plate
- antimutagenic effect class (S. typhimurium TA97a; [20]): * (no antimutagenic effect (< 25% inhibition))
- reduction of NOPD mutagenicity (S. typhimurium TA97a; TA97a, NOPD): no antimutagenic activity
- reduction of AA mutagenicity (S. typhimurium TA97a; TA97a, with metabolic activation, AA): no antimutagenic activity
- % inhibition (S. typhimurium TA97a; [21]): 14%
- antimutagenic effect class (S. typhimurium TA97a; [21]): * (no antimutagenic effect (< 25% inhibition))
- % inhibition (S. typhimurium TA97a; [22]): 19%
- antimutagenic effect class (S. typhimurium TA97a; [22]): * (no antimutagenic effect (< 25% inhibition))
- % inhibition (S. typhimurium TA98 [3]; [23]): 38%
- antimutagenic effect class (S. typhimurium TA98 [3]; [23]): ** (moderate effect (25% - 40% inhibition))
- % inhibition (S. typhimurium TA98 [3]; [24]): 37%
- Number of revertants (M ± SD)/ plate (S. typhimurium TA98 [3]; [24]): 526 ± 12 revertants/plate
